What is called EC50 is the concentration that produces a half-maximal response. Low readings indicate a more potent agent, high ones a less potent agent.

This experiment deals with T1, Human M4 receptors (Homo sapiens, UniProt P08173).
T1 construct: expressed in transfected cells; host or cells: HEK293 cells with Promega GloSensor cAMP technology, stably expressing hM4
T1 sequence (P08173 1-479): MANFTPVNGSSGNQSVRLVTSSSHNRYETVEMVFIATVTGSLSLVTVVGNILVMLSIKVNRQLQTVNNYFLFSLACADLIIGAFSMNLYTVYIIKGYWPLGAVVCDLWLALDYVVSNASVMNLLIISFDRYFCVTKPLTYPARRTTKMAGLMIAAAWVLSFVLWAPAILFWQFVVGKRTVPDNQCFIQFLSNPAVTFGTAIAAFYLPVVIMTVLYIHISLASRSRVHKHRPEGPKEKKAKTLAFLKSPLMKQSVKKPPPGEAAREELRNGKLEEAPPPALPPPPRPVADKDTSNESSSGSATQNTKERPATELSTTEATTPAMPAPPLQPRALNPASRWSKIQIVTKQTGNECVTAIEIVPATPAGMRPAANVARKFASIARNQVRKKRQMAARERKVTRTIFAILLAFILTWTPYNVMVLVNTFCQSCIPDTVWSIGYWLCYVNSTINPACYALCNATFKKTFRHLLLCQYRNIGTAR
Briefly: M4 PAM cAMP assay (GloSensor). The conditions noted are these: for Emax: HEK293, read-out: M4 glosensor EC50 Mean Asymptote Maximum (%); for EC50 / M4 glosensor EC50 Mean Asymptote Maximum (%): HEK293 GloSensor cells expressing hM4, with EC20 acetylcholine and isoproterenol, geometric mean of 2-4 determinations unless otherwise indicated; for M4 glosensor EC50 Mean Asymptote Maximum (%): Emax = maximum asymptote of fitted dose response curve. In kind it is cell-based. Here is the method:
The M4 PAM binding affinity for the compounds of the present invention was determined utilizing the following biological assay(s):
The M4 cAMP assay was designed to determine the potency and efficacy of muscarinic positive allosteric modulators (PAMs). Human M4 receptors were stably expressed in Human embryonic kidney (HEK293) cells expressed with the Promega GloSensor™ cAMP technology.
HEK293 GloSensor cells expressing hM4 cells were cultured in growth media containing DMEM with 10% FBS, 1% Penicillin/Streptomycin, 500 μg/mL G418, 200 μg/mL Hygomycin B, and 1% Glutamax. […] Plates were incubated at 37 degrees C. and 5% CO2 for use after 24 hours.
Compound Preparation for Agonist Screen:
Each compound was tested at 10 concentrations in duplicate per experiment. Compound plates are spotted with 0.2 μL/well agonist at 400 times the final assay concentration. Positive and negative controls for the compound alone agonist response was 10 μM acetylcholine (Sigma #A2661) and DMSO, respectively. EC20 of acetylcholine was also used to define PAM activities.
Promega GloSensor™ reagent (Promega #E1291) had previously been aliquotted. […] Stock solution was mixed. Culture media in cell plates was discarded, then replaced with 40 μL/well pre-warmed equilibration media, then incubated in the dark at room temperature for 2 hours. During the incubation, stimulation media containing agonist and EC20 acetylcholine was prepared. […] Compounds are now 5 times the final assay concentration. The plate was mixed using a plate agitator. At the end of the 2 hour GloSensor™ incubation, add 10 μL of the CO2-independent media containing agonist, EC20 acetylcholine and isoproterenol to the cell plate. Cell plate was then incubated for 10 minutes at room temperature, and then read using an EnVision plate reader (Perkin Elmer).
Data was exported from the EnVision plate reader. The percent effect for each well was determined using the mean values for the positive and negative controls on each plate for each read, specifically 100*(compound−negative control)/(positive control−negative control). Dose response curves were fitted to the compound percent effect data using a 4-parameter logistic fit model. Data was reported as EC50 and Emax, with the Emax as the maximum asymptote of the fitted dose response curve.

As to `Cc1cc(C)c2c(n1)CN(C(=O)C[C@H]1C[C@@H]1c1ccc3cncnc3c1)C2` (racemic) [Example 76, 1-(2,4-dimethyl-5,7-dihydro-6H-pyrrolo[3,4-b]pyridin-6-yl)-2-[trans-2-(quinazolin-7-yl)cyclopropyl]ethanone], the Emax amounted to 45% and the half-maximal effective concentration (EC50) came out at 1400 nM.

As for `Cc1cc(C)c2c(n1)CN(C(=O)C[C@H]1C[C@@H]1c1ccccc1)C2` (racemic) [Example 77, 1-(2,4-dimethyl-5,7-dihydro-6H-pyrrolo[3,4-b]pyridin-6-yl)-2-[trans-2-phenylcyclopropyl]ethanone], the Emax is 176% and the response was half-maximal at 2880 nM (EC50).

For the compound `Cc1cc(C)c2c(n1)CN(C(=O)CC1CN(c3cccnc3)C1)C2C` (single isomer, unassigned) [Example 14, 2-[1-(Pyridin-3-yl)azetidin-3-yl]-1-(2,4,5-trimethyl-5,7-dihydro-6H-pyrrolo[3,4-b]pyridin-6-yl)ethanone], the “M4 glosensor EC50 Mean Asymptote Maximum (%)” value is 62.5% and the EC50 was 9080 nM.

In the case of `Cc1cc(C)c2c(n1)CN(C(=O)CC1CN(c3cccnc3)C1)C2C` (single isomer, unassigned) [Example 15, 2-[1-(Pyridin-3-yl)azetidin-3-yl]-1-(2,4,5-trimethyl-5,7-dihydro-6H-pyrrolo[3,4-b]pyridin-6-yl)ethanone], the “M4 glosensor EC50 Mean Asymptote Maximum (%)” value is 106% and the half-maximal effective concentration (EC50) was 28 nM.

With `Cc1nc2c(c(C)c1C)CN(C(=O)C[C@@H]1C[C@H]1c1cccnc1)C2` (single isomer, unassigned) [Example 37, 2-[trans-2-(pyridin-3-yl)cyclopropyl]-1-(2,3,4-trimethyl-5,7-dihydro-6H-pyrrolo[3,4-b]pyridin-6-yl)ethanone], the “M4 glosensor EC50 Mean Asymptote Maximum (%)” value stood at 85.8% and the response was half-maximal at 1790 nM (EC50).

As for `Cc1nc2c(c(C)c1C)CN(C(=O)C[C@@H]1C[C@H]1c1cccnc1)C2` (single isomer, unassigned) [Example 38, 2-[trans-2-(pyridin-3-yl)cyclopropyl]-1-(2,3,4-trimethyl-5,7-dihydro-6H-pyrrolo[3,4-b]pyridin-6-yl)ethanone], the “M4 glosensor EC50 Mean Asymptote Maximum (%)” value is 111% and the concentration giving a half-maximal response (EC50) was 15.9 nM.

As for `Cc1nc2c(c(C)c1Cl)CN(C(=O)C[C@@H]1C[C@H]1c1cncnc1)C2` (single isomer, unassigned) [Example 51, 1-(3-chloro-2,4-dimethyl-5,7-dihydro-6H-pyrrolo[3,4-b]pyridin-6-yl)-2-[trans-2-(pyrimidin-5-yl)cyclopropyl]ethanone], the Emax was 102% and the EC50 worked out at 4.75 nM.

On to `Cc1nc2c(c(C)c1C)CN(C(=O)CC1CN(c3ncns3)C1)C2` [Example 5, 2-[1-(1,2,4-Thiadiazol-5-yl)azetidin-3-yl]-1-(2,3,4-trimethyl-5,7-dihydro-6H-pyrrolo[3,4-b]pyridin-6-yl)ethanone], for which the Emax is 98.2% and the concentration for a half-maximal effect (EC50) came out at 8.88 nM.

As to `Cc1cc(C(F)F)nc2c1CN(C(=O)CC1CN(c3ccnc(C(F)(F)F)c3)C1)C2` [Example 6, 1-[2-(Difluoromethyl)-4-methyl-5,7-dihydro-6H-pyrrolo[3,4-b]pyridin-6-yl]-2-{1-[2-(trifluoromethyl)pyridin-4-yl]azetidin-3-yl}ethanone], the Emax was determined as 92.4% and the EC50 came to 9.75 nM.

Turning to `COCc1cc(C)c2c(n1)CN(C(=O)CC1CN(c3ccnc(C(F)(F)F)c3)C1)C2` [Example 7, 1-[2-(methoxymethyl)-4-methyl-5,7-dihydro-6H-pyrrolo[3,4-b]pyridin-6-yl]-2-{1-[2-(trifluoromethyl)pyridin-4-yl]azetidin-3-yl}ethanone], the Emax is 99.8% and the midpoint of the response, the EC50, lay at 17.4 nM.

With `COCc1cc(C)c2c(n1)CN(C(=O)CC1CN(c3ccnc(OC(F)F)c3)C1)C2` [Example 8, 2-{1-[2-(Difluoromethoxy)pyridin-4-yl]azetidin-3-yl}-1-[2-(methoxymethyl)-4-methyl-5,7-dihydro-6H-pyrrolo[3,4-b]pyridin-6-yl]ethanone], the Emax is 99.1% and the concentration giving a half-maximal response (EC50) came to 22.7 nM.

With `Cc1cc(CO)nc2c1CN(C(=O)CC1CN(c3cccnc3)C1)C2` [Example 9, 1-[2-(Hydroxymethyl)-4-methyl-5,7-dihydro-6H-pyrrolo[3,4-b]pyridin-6-yl]-2-[1-(pyridin-3-yl)azetidin-3-yl]ethanone], the Emax came to 86.5% and the EC50 came out at 17.2 nM.

As to `Cc1c(C(F)F)nc2c(c1C)CN(C(=O)CC1CN(c3ccnc(OC(F)F)c3)C1)C2` [Example 10, 2-{1-[2-(Difluoromethoxy)pyridin-4-yl]azetidin-3-yl}-1-[2-(difluoromethyl)-3,4-dimethyl-5,7-dihydro-6H-pyrrolo[3,4-b]pyridin-6-yl]ethanone], the Emax came out at 99.5% and the concentration for a half-maximal effect (EC50) was 28.9 nM.

In the case of `Cc1nc2c(c(C)c1Cl)CN(C(=O)CC1CN(c3ccnc(C(F)F)c3)C1)C2` [Example 12, 1-(3-Chloro-2,4-dimethyl-5,7-dihydro-6H-pyrrolo[3,4-b]pyridin-6-yl)-2-{1-[2-(difluoromethyl)pyridin-4-yl]azetidin-3-yl}ethanone], the Emax amounted to 119% and it took 7.1 nM to reach a half-maximal effect (EC50).

As to `Cc1nc2c(c(C)c1Cl)CN(C(=O)CC1CN(c3cccnc3)C1)C2` [Example 13, 1-(3-Chloro-2,4-dimethyl-5,7-dihydro-6H-pyrrolo[3,4-b]pyridin-6-yl)-2-[1-(pyridin-3-yl)azetidin-3-yl]ethanone], the Emax was determined as 101% and the midpoint of the response, the EC50, lay at 2.04 nM.

`Cc1ccc([C@@H]2C[C@H]2CC(=O)N2Cc3nc(C)cc(C)c3C2)cn1` [Example 16, 1-(2,4-Dimethyl-5,7-dihydro-6H-pyrrolo[3,4-b]pyridin-6-yl)-2-[(1S,2R)-2-(6-methylpyridin-3-yl)cyclopropyl]ethanone] yielded an EC50 greater than 10000 nM.

As for `Cc1ccc([C@H]2C[C@@H]2CC(=O)N2Cc3nc(C)cc(C)c3C2)cn1` [Example 17, 1-(2,4-Dimethyl-5,7-dihydro-6H-pyrrolo[3,4-b]pyridin-6-yl)-2-[(1R,2S)-2-(6-methylpyridin-3-yl)cyclopropyl]ethanone], the Emax came out at 107% and the EC50 came to 71.9 nM.

Consider `Cc1ccc([C@H]2C[C@@H]2CC(=O)N2Cc3nc(C(F)F)cc(C)c3C2)cn1` [Example 18, 1-[2-(difluoromethyl)-4-methyl-5,7-dihydro-6H-pyrrolo[3,4-b]pyridin-6-yl]-2-[(1R,2S)-2-(6-methylpyridin-3-yl)cyclopropyl]ethanone], for which the Emax came out at 89% and a half-maximal response (EC50) required 37.7 nM.

Turning to `COc1cc(C)c2c(n1)CN(C(=O)CC1CN(c3cccnc3)C1)C2` [Example 21, 1-(2-methoxy-4-methyl-5,7-dihydro-6H-pyrrolo[3,4-b]pyridin-6-yl)-2-[1-(pyridin-3-yl)azetidin-3-yl]ethanone], the Emax was found to be 86.6% and the concentration giving a half-maximal response (EC50) came to 23.9 nM.

In the case of `COc1nc2c(c(C)c1Cl)CN(C(=O)CC1CN(c3cccnc3)C1)C2` [Example 22, 1-(3-chloro-2-methoxy-4-methyl-5,7-dihydro-6H-pyrrolo[3,4-b]pyridin-6-yl)-2-[1-(pyridin-3-yl)azetidin-3-yl]ethanone], the Emax stood at 109% and the midpoint of the response, the EC50, lay at 4.82 nM.

Source of the values: patent publication US11905284B2, “5,7-dihydro-pyrrolo-pyridine derivatives” (PFIZER INC., priority 2016, dated 2024).
